{"source": "patent US20030133985A1", "about": "“Formulation of an erodible, gastric retentive oral dosage form using in vitro disintegration test data” (priority 2001, published 2003)", "origin": "cited, not measured here", "conditions": "at 20° C."}
{"molecule": "CC1(C)O[C@@H]2[C@@H](CO[C@@]3(COS(N)(=O)=O)OC(C)(C)O[C@@H]23)O1", "note": "[topiramate]", "values": [{"measurement": "water solubility", "result": 1, "unit": "%"}]}
